Experimental data as given in patent publication US10155021B2, “Antimicrobial 4-oxoquinolizines” (Emergent Product Development Gaithersburg Inc., priority 2011, dated 2018).
≈ marks a conversion by molar mass, not a printed value. Like-named read-outs stand apart in the source and are kept apart here.

Tests used:
[1] = tested on: Klebsiella ssp KPC-3; assay: MIC, panel of quinolone-resistant strains (CLSI); format: cell-based, Klebsiella spp; settings: KPC3, CIP R, ESBL
[2] = tested on: A. baumannii J2; assay: MIC without and with sub-inhibitory polymyxin B (Example 4); format: cell-based, Acinetobacter baumannii; settings: Acinetobacter baumannii, J2, A. baumannii J2; without polymyxin B; 2nd experiment; visual reading; read-out: MIC without PB
[3] = tested on: A. baumannii A329; assay: MIC determination for Acinetobacter strains (Example 3); format: cell-based; settings: LEV R, CIP R, MRP R, IMP R, AMK R, TET R
[4] = tested on: E. coli CTX-M-15; assay: MIC, panel of quinolone-resistant strains (CLSI); format: cell-based; settings: Escherichia coli, CTXM15; CIP R, ESBL
[5] = tested on: A. baumannii A489; assay: Preliminary MBC without and with sub-inhibitory polymyxin B (Example 4); format: cell-based, Acinetobacter baumannii; settings: Acinetobacter baumannii, A489, A. baumannii A489, without polymyxin B, read-out: MBC without PB
[6] = tested on: P. aeruginosa 143-3-03; assay: MIC, panel of quinolone-resistant strains (CLSI); format: cell-based; settings: Pseudomonas aeruginosa, 143303; CIP I, POL R
[7] = tested on: A. baumannii A 401; assay: MIC determination for Acinetobacter strains (Example 3); format: cell-based; settings: A401, LEV R, CIP R, AMK R, TET R
[8] = tested on: A. baumannii A329; assay: Preliminary MBC without and with sub-inhibitory polymyxin B (Example 4); format: cell-based, Acinetobacter baumannii; settings: Acinetobacter baumannii, A329, A. baumannii A329, without polymyxin B, read-out: MBC without PB
[9] = tested on: P. aeruginosa 1388-3-02; assay: MIC, panel of quinolone-resistant strains (CLSI); format: cell-based; settings: Pseudomonas aeruginosa, 1388302; CIP R, POL R
[10] = tested on: A. baumannii A473; assay: MIC without and with sub-inhibitory polymyxin B (Example 4); format: cell-based, Acinetobacter baumannii; settings: Acinetobacter baumannii, A473, A. baumannii A473; without polymyxin B; 2nd experiment; visual reading; read-out: MIC without PB
[11] = tested on: Acinetobacter sp. (H064200250); assay: Preliminary MBC without and with sub-inhibitory polymyxin B (Example 4); format: cell-based; settings: Acinetobacter, without polymyxin B, preliminary MBC, read-out: MBC without PB
Procedure, shortened: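 Read-out: the minimum concentration at which colonies were reduced by ca. 90% relative to positive control, usually seen as isolated colonies or a clear plate. Plates had been kept 18-20 hours at 37° C beforehand.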

[12] = tested on: Acinetobacter spp. H064200250; assay: MIC determination for Acinetobacter strains (Example 3); format: cell-based, Acinetobacter sp.; settings: LEV R, CIP R, MRP R, IMP I
[13] = tested on: A. baumannii A401; assay: Preliminary MBC without and with sub-inhibitory polymyxin B (Example 4); format: cell-based, Acinetobacter baumannii; settings: Acinetobacter baumannii, A401, A baumannii A 401, without polymyxin B, preliminary MBC, read-out: MBC without PB
[14] = tested on: E. coli 2906; assay: MIC, panel of quinolone-resistant strains (CLSI); format: cell-based; settings: Escherichia coli, CIP R
[15] = tested on: A. baumannii A473; assay: Preliminary MBC without and with sub-inhibitory polymyxin B (Example 4); format: cell-based, Acinetobacter baumannii; settings: Acinetobacter baumannii, A473, A. baumannii A473, without polymyxin B, read-out: MBC without PB
[16] = tested on: A. baumannii A401; assay: MIC without and with sub-inhibitory polymyxin B (Example 4); format: cell-based, Acinetobacter baumannii; settings: Acinetobacter baumannii, A401, A baumannii A 401, without polymyxin B, read-out: MIC without PB
[17] = tested on: A. baumannii A472; assay: Preliminary MBC without and with sub-inhibitory polymyxin B (Example 4); format: cell-based, Acinetobacter baumannii; settings: Acinetobacter baumannii, A472, A. baumannii A472, without polymyxin B, 2nd experiment, read-out: MBC without PB
[18] = tested on: A. baumannii A472; assay: MIC without and with sub-inhibitory polymyxin B (Example 4); format: cell-based, Acinetobacter baumannii; settings: Acinetobacter baumannii, A472, A. baumannii A472, without polymyxin B, read-out: MIC without PB
[19] = tested on: resistant strains of A. baumannii and one strain of Acinetobacter sp.; assay: MIC without and with sub-inhibitory polymyxin B, whole panel / MIC ranges (Example 4; also strains not listed separately); format: cell-based; settings: Acinetobacter baumannii
[20] = tested on: A. baumannii A329; assay: MIC without and with sub-inhibitory polymyxin B (Example 4); format: cell-based, Acinetobacter baumannii; settings: Acinetobacter baumannii, A329, A. baumannii A329, without polymyxin B, read-out: MIC without PB
[21] = tested on: Pseudomonas ssp PER-1; assay: MIC, panel of quinolone-resistant strains (CLSI); format: cell-based, Pseudomonas spp; settings: PER1, CIP R, ESBL
[22] = tested on: A. baumannii A390; assay: Preliminary MBC without and with sub-inhibitory polymyxin B (Example 4); format: cell-based, Acinetobacter baumannii; settings: Acinetobacter baumannii, A390, A. baumannii A390, without polymyxin B, preliminary MBC, read-out: MBC without PB
[23] = tested on: A. baumannii J2; assay: as above; format: cell-based, Acinetobacter baumannii; settings: Acinetobacter baumannii, J2, A. baumannii J2, without polymyxin B, preliminary MBC, read-out: MBC without PB
[24] = tested on: A. baumannii A489; assay: MIC without and with sub-inhibitory polymyxin B (Example 4); format: cell-based, Acinetobacter baumannii; settings: Acinetobacter baumannii, A489, A. baumannii A489; without polymyxin B; 2nd experiment; visual reading; read-out: MIC without PB
[25] = Acinetobacter spp. H064200250 (OXA51), 2nd experiment
[26] = Acinetobacter spp. H064200250, 1st experiment

SMILES | MIC [1] [mg/L] | MIC [3] [mg/L] | MIC [4] [mg/L] | MBC ([5]; 2nd experiment) [mg/L] | MIC [6] [mg/L] | MIC [7] [mg/L] | MBC ([8]; 2nd experiment) [mg/L] | MIC [9] [mg/L] | MBC [11, 25] [mg/L] | MBC [11, 26] [mg/L] | MIC [12] [mg/L] | MBC ([13]; 2nd experiment) [mg/L] | MBC ([13]; 1st experiment) [mg/L] | MIC [14] [mg/L] | MIC ([16]; 1st experiment) [mg/L] | MBC [17] [mg/L] | MIC ([18]; 2nd experiment, visual reading) [mg/L] | MIC ([20]; 1st experiment) [mg/L] | MIC [21] [mg/L] | MBC ([23]; 2nd experiment) [mg/L] | also measured
Cc1c(-c2ccc(N)cc2)ccn2c(=O)c(C(=O)O)cc(C3CC3)c12 [Compound 8, 8-(4-amino-phenyl)-1-cyclopropyl-9-methyl-4-oxo-quinolizine-3-carboxylic acid] | 16 (≈ 47.9 µM) | 16 (≈ 47.9 µM) | > 32 | 8 (≈ 23.9 µM) | 2 (≈ 5.98 µM) | 32 (≈ 95.7 µM) | 8 (≈ 23.9 µM) | 8 (≈ 23.9 µM) | 4 (≈ 12 µM) | 4 (≈ 12 µM) | 2 (≈ 5.98 µM) | 8 (≈ 23.9 µM) | 8 (≈ 23.9 µM) | > 32 | 32 (≈ 95.7 µM) | 4 (≈ 12 µM) | 4 (≈ 12 µM) | 16 (≈ 47.9 µM) | 16 (≈ 47.9 µM) | 4 (≈ 12 µM) | MIC [2]: 4 mg/L (≈ 12 µM); MIC [10]: 4 mg/L (≈ 12 µM); MBC ([15]; 2nd experiment): 4 mg/L (≈ 12 µM); MIC ([18]; 1st experiment): 4 mg/L (≈ 12 µM); MIC ([19]; A. baumannii A14, without polymyxin B, 1st experiment, read-out: MIC without PB): 32 mg/L (≈ 95.7 µM); MIC ([19]; NCTC13301, A. baumannii NCTC 13301, without polymyxin B, 1st experiment, read-out: MIC without PB): 32 mg/L (≈ 95.7 µM); MIC ([19]; NCTC13301, A. baumannii NCTC 13301, without polymyxin B, 2nd experiment, visual reading, read-out: MIC without PB): 16 mg/L (≈ 47.9 µM); MBC ([22]; 1st experiment): 8 mg/L (≈ 23.9 µM); MBC ([23]; 1st experiment): 8 mg/L (≈ 23.9 µM)
Cc1c(-c2ccc(CN)c(F)c2)ccn2c(=O)c(C(=O)O)cc(C3CC3)c12 [Compound 4, 8-(3-fluoro-4-aminomethyl-phenyl)-1-cyclopropyl-9-methyl-4-oxo-quinolizine-3-carboxylic acid] | 4 (≈ 10.9 µM) | 16 (≈ 43.7 µM) | 16 (≈ 43.7 µM) | 16 (≈ 43.7 µM) | 4 (≈ 10.9 µM) | 16 (≈ 43.7 µM) | 32 (≈ 87.3 µM) | 16 (≈ 43.7 µM) | 32 (≈ 87.3 µM) | 16 (≈ 43.7 µM) | 16 (≈ 43.7 µM) | 32 (≈ 87.3 µM) | 4 (≈ 10.9 µM) | 8 (≈ 21.8 µM) | 16 (≈ 43.7 µM) | 16 (≈ 43.7 µM) | 16 (≈ 43.7 µM) | 16 (≈ 43.7 µM) | 8 (≈ 21.8 µM) | 16 (≈ 43.7 µM) | MBC ([5]; 1st experiment): 4 mg/L (≈ 10.9 µM); MIC [24]: 16 mg/L (≈ 43.7 µM); MBC ([8]; 1st experiment): 16 mg/L (≈ 43.7 µM); MBC ([15]; 1st experiment): 4 mg/L (≈ 10.9 µM); MIC ([16]; 2nd experiment, visual reading): 16 mg/L (≈ 43.7 µM); MIC ([19]; read-out: MIC range without PB 01-10-2008 n = 8, without polymyxin B, 1st experiment, 8 strains): 2 to 32 mg/L (≈ 5.46 to 87.3 µM); MIC ([19]; without polymyxin B, 2nd experiment, 11 strains, read-out: MIC range without PB 14-10-2008 n = 11): 4 to 16 mg/L (≈ 10.9 to 43.7 µM); MIC ([20]; 2nd experiment, visual reading): 16 mg/L (≈ 43.7 µM); MBC ([22]; 2nd experiment): 32 mg/L (≈ 87.3 µM); MBC ([23]; 1st experiment): 4 mg/L (≈ 10.9 µM)
